Consider 14 molecules from patent publication US11919902B2, “Aryl-bipyridine amine derivatives as phosphatidylinositol phosphate kinase inhibitors” (HiberCell, Inc., priority 2017, dated 2024).

A word on the IC50: it is the concentration needed to halve the response being measured.

Bounds are passed on as bounds.

The target in experiment [1] is T1, PIP4K2A (full length protein, SignalChem) (Homo sapiens, UniProt P48426).
T1 construct: 4 nM PIP4K2A (full length protein, SignalChem); purchased SignalChem
T1 sequence (P48426 1-406): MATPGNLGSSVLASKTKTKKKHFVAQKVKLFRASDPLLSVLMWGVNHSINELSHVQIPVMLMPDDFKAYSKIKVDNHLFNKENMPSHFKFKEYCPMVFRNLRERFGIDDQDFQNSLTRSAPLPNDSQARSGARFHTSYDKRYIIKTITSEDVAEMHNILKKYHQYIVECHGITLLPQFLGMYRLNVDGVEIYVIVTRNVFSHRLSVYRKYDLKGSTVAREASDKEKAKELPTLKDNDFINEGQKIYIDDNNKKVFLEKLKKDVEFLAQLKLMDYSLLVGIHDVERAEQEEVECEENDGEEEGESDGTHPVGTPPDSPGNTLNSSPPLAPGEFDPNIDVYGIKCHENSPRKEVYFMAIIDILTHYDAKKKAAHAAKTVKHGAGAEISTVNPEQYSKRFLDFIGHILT
As to the kind of experiment: Kinase Assay PIP4K2 A (Sprint); ADP-Glo biochemical assay. Conditions: Table 2; compounds listed under IC50 range headings. The procedure: Dilution series of the compounds were prepared in DMSO at 100 times the final assay concentration (n1=n0/3 in 10 points). The compounds were further diluted to three times the assay concentration in assay buffer (20 mM MOPS pH 7.2, 25 mM magnesium chloride, 0.005% Tween 20). 6 μL of the diluted compounds were added to a 384 well assay plate followed by 9 μL of a mix consisting of 4 nM PIP4K2A (full length protein, SignalChem) and 100 μM PI(5)P diC8 (Tebu-Bio). Enzyme and compounds were pre-incubated at room temperature for 15 min.
Then 3 μL of a solution containing 60 μM ATP (Promega) in assay buffer was added to the wells containing compound and enzyme and mixing was performed by pipetting several times. The reaction was incubated at room temperature for 1 h. Then 18 μL of ADP-Glo™ Reagent (Promega) was added to stop the kinase reaction and deplete the unconsumed ATP, mixing was performed by pipetting several times. The plate was incubated at room temperature for 40 min before addition of 36 μL of Kinase Detection Reagent (Promega) to convert ADP to ATP and introduce luciferase and luciferin to detect ATP. The reaction was incubated at room temperature for 40 min before the luminescence was measured in a in a Victor 3V 1420 multilabel counter (Perkin Elmer).
Percent inhibition of the compounds as compared to dimethyl sulfoxide treated control samples was calculated. Compound concentration versus percent inhibition were fitted to generate IC50 values.
(In general: ADP-Glo turns the ADP formed in a reaction into a luminescent signal.)

The target of a further experiment is T2, GST tagged PIP4KtypeIIB (Homo sapiens, UniProt P78356).
T2 construct: made in house; host or cells: E. coli
T2 sequence (P78356 1-416): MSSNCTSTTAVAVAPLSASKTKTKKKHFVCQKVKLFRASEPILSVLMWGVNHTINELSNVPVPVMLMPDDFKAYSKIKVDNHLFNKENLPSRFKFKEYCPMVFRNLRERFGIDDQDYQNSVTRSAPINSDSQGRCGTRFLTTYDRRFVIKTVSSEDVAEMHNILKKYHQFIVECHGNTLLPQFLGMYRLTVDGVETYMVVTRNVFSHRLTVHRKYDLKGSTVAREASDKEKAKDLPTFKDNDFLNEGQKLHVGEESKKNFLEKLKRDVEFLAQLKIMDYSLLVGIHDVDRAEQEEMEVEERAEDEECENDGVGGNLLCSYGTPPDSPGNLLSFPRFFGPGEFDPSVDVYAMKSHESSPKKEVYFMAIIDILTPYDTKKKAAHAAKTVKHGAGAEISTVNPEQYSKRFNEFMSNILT
As to the kind of experiment: Trans-FI P kinase assay PIP4K2B (PIP4KtypeIIB inhibition assay). Format: biochemical. To be noted: Table 4; compounds listed under IC50 range headings; 100 uM GTP, 5 nM PIP4KIIB; read-out: Trans-FI P kinase assays: PIP4K2B IC50. The source says:
GST tagged PIP4KtypeIIA and B enzymes were overexpressed in E. Coli and purified to >80% homogeneity. Phosphatidyl inositol-5-phosphate (PI5P, Cat. #850152, Avanti Polar Lipids Inc.) was used as the lipid substrate and phosphatidyl ethanolamine (DOPE 18:1, Cat. #850725, Avanti Polar Lipids Inc.) was used as the carrier lipid for assays. Ultrapure ATP and GTP was purchased from Bellbrooke Labs. ADP Glo reagents were obtained from Promega. Transcreener FI reagent was obtained from Bellbrooke labs.
1. HEPES buffer mix: 200 mM HEPES pH 7.4, 50 mM MgCl2, 0.05% v/v triton×100
2. HNE buffer: 20 mM HEPES, pH 7.4, 100 mM NaCl, 0.5 mM EGTA
3. H:E buffer: 30 mM HEPES, pH 7.4, 1 mM EGTA
GST-tagged PIP4KtypeIIB (3.4 uL, 2.77 mg/mL) was diluted to 5 mL using HNE buffer to yield 5× enzyme stock (25 nM)
Lipid Preparation: In a 10 mL pyrex glass vial, lug of PI5P and lug of DOPE were suspended in 2.5 mL of HEPES buffer mix and 2.5 mL of H:E buffer. The contents were mixed and sonicated for 3 min to yield a translucent lipid stock.
Compound Preparation: Compounds were stored as 5 mM stocks in neat DMSO as room temperature in glass vials. 5 mM stocks were diluted to 2 mM and then serially diluted (3×) in neat DMSO in 96 well polypropylene plates. From the serially diluted stocks, 3 uL was delivered into 250 uL of 25% DMSO (in water) to generate 5× compound stocks. Typically, the highest compound conc. was 24 uM.
The assay volume was kept at 25 uL. To each well of the reaction plate, 10 uL of lipid stock (1:1 ratio PI5P:DOPE) was delivered. This was followed by the addition of 5 uL of compound in 25% DMSO. Then, to each well, 5 uL of 25 nM (5×) typeIIB enzyme was delivered. The contents were mixed well and incubated for 1 h at 27 C. After 1 h, reaction was initiated by adding 5 uL of 500 uM GTP and the contents were mixed well with a multi-channel pipetteman. The final concentration of the reagents are as follows: 50 mM HEPES, pH 7.3, 10 mM MgCl2, 20 mM NaCl, 0.01% v/v triton-X100, 5% DMSO, 100 uM GTP, 80 uM (2 ug) PI5P, 2 ug DOPE, and 5 nM PIP4KIIB Typically, the highest conc. of compounds was 4.8 uM and the lowest conc. was 0.
After 2 h, the reaction was quenched by adding 25 uL of transcreener FI reagent. The contents were incubated at RT for 1 h and the Fluorescence (Ex: 584 Em: 623) was read using Molecular Devices Paradigm plate reader. […] The blanks were averaged and subtracted from all other wells. Using a calibration curve, RFU was converted to uM GDP (product). IC50 was calculated by plotting the residual activity (expressed as % No inhibitor control) vs. log [Inh. conc.] Table 2 represents PI5P4K activity of compounds (Example No.) of the invention arranged in accordance with the inhibition of PIP4K2 A kinase assay.

In the case of `CN(C(=O)c1cc2c(-c3cncc(-c4ccc(N5CCCC5=O)cc4)c3)ccnc2[nH]1)c1cccnc1` [Example 310, N-methyl-4-(5-(4-(2-oxopyrrolidin-1-yl)phenyl)pyridin-3-yl)-N-(pyridin-3-yl)-1H-pyrrolo[2,3-b]pyridine-2-carboxamide], the IC50 (in experiment [1]; on GST tagged PIP4KtypeIIB) was 100 to 1000 nM each time.

Turning to `Cc1cccc2[nH]c(CNC(=O)c3cc4c(-c5cncc(-c6ccc(N7CCCC7=O)cc6)c5)ccnc4[nH]3)nc12` [Example 317, N-((4-methyl-1H-benzo[d]imidazol-2-yl)methyl)-4-(5-(4-(2-oxopyrrolidin-1-yl)phenyl)pyridin-3-yl)-1H-pyrrolo[2,3-b]pyridine-2-carboxamide], the IC50 in experiment [1] was below 5000 nM; on GST tagged PIP4KtypeIIB it was 10 to 100 nM.

In the case of `CN1CCn2c(cc3c(-c4cncc(-c5ccc(C(=O)N6CCOCC6)cc5)c4)ccnc32)C1=O` [Example 327, 7-methyl-4-(5-(4-(morpholine-4-carbonyl)phenyl)pyridin-3-yl)-8,9-dihydropyrido[3′,2′:4,5]pyrrolo[1,2-a]pyrazin-6(7H)-one], the IC50 is 2500 to 5000 nM in experiment [1] and 100 to 1000 nM on GST tagged PIP4KtypeIIB.

In the case of `Cc1cc(N2CCn3c(cc4c(-c5cncc(-c6ccc(N7CCCC7=O)cc6)c5)ccnc43)C2=O)nn1C` [Example 331, 7-(1,5-dimethyl-1H-pyrazol-3-yl)-4-(5-(4-(2-oxopyrrolidin-1-yl)phenyl)pyridin-3-yl)-8,9-dihydropyrido[3′,2′:4,5]pyrrolo[1,2-a]pyrazin-6(7H)-one], the IC50 fell in the range of 100 to 1000 nM in experiment [1] and 10 to 100 nM on GST tagged PIP4KtypeIIB.

On to `CN1CCn2c(cc3c(-c4cncc(-c5ccc(-c6nnc7n6CCC7)cc5)c4)ccnc32)C1=O` [Example 348, 4-(5-(4-(6,7-dihydro-5H-pyrrolo[2,1-c][1,2,4]triazol-3-yl)phenyl)pyridin-3-yl)-7-methyl-8,9-dihydropyrido[3′,2′:4,5]pyrrolo[1,2-a]pyrazin-6(7H)-one], for which the IC50 (in experiment [1]; on GST tagged PIP4KtypeIIB) was 100 to 1000 nM in each case.

As to `CC(C)Cn1cnnc1-c1ccc(-c2cncc(-c3ccnc4c3cc3n4CCN(C)C3=O)c2)cc1` [Example 383, 4-(5-(4-(4-isobutyl-4H-1,2,4-triazol-3-yl)phenyl)pyridin-3-yl)-7-methyl-8,9-dihydropyrido[3′,2′:4,5]pyrrolo[1,2-a]pyrazin-6(7H)-one], the concentration for half-maximal inhibition (IC50) in experiment [1] was 100 to 1000 nM; on GST tagged PIP4KtypeIIB, 10 to 100 nM.

For the molecule `Cc1[nH]nc2nccc(-c3cncc(-c4ccc(N5CCCC5=O)cc4)c3)c12` [Example 318, 1-(4-(5-(3-methyl-2H-pyrazolo[3,4-b]pyridin-4-yl)pyridin-3-yl)phenyl)pyrrolidin-2-one], the results for the IC50 (in experiment [1]; at GST tagged PIP4KtypeIIB) were 1000 to 2500 nM and 100 to 1000 nM, respectively.

Consider `CC(C)n1cnnc1-c1ccc(-c2cncc(-c3ccnc4[nH]c(C(=O)NCCc5ccncc5)cc34)c2)cc1` [Example 371, 4-(5-(4-(4-isopropyl-4H-1,2,4-triazol-3-yl)phenyl)pyridin-3-yl)-N-(2-(pyridin-4-yl)ethyl)-1H-pyrrolo[2,3-b]pyridine-2-carboxamide], for which the IC50 in experiment [1] was 100 to 1000 nM; on GST tagged PIP4KtypeIIB, 10 to 100 nM.

For `Cc1ccc2c(c1)N(C(=O)c1cc3c(-c4cncc(-c5ccc(N6CCCC6=O)cc5)c4)ccnc3[nH]1)CCO2` [Example 325, 1-(4-(5-(2-(6-methyl-3,4-dihydro-2H-benzo[b][1,4]oxazine-4-carbonyl)-1H-pyrrolo[2,3-b]pyridin-4-yl)pyridin-3-yl)phenyl)pyrrolidin-2-one], the results for the half-maximal inhibitory concentration (IC50) (in experiment [1]; on GST tagged PIP4KtypeIIB) were 5 to 100 nM and 100 to 1000 nM, respectively.

Consider `Nc1ccc(-c2cnc3ncc(-c4cncc(-c5ccc(N6CCCC6=O)cc5)c4)cn23)cn1` [Example 337, 1-(4-(5-(3-(6-aminopyridin-3-yl)imidazo[1,2-a]pyrimidin-6-yl)pyridin-3-yl)phenyl)pyrrolidin-2-one], for which the IC50 in experiment [1] lay within 5 to 100 nM; on GST tagged PIP4KtypeIIB, 100 to 1000 nM.

Turning to `Nc1ncc(-c2cnc3ncc(-c4cncc(-c5ccc(N6CCCC6=O)cc5)c4)cn23)cn1` [Example 334, 1-(4-(5-(3-(2-aminopyrimidin-5-yl)imidazo[1,2-a]pyrimidin-6-yl)pyridin-3-yl)phenyl)pyrrolidin-2-one], the IC50 (in experiment [1]; on GST tagged PIP4KtypeIIB) was 100 to 1000 nM throughout.

Turning to `CC(C)n1cnnc1-c1ccc(-c2cncc(-c3ccnc4[nH]c(C(=O)NCc5ccccc5)cc34)c2)cc1` [Example 373, N-benzyl-4-(5-(4-(4-isopropyl-4H-1,2,4-triazol-3-yl)phenyl)pyridin-3-yl)-1H-pyrrolo[2,3-b]pyridine-2-carboxamide], the half-maximal inhibitory concentration (IC50) lay within 100 to 1000 nM in experiment [1] and 10 to 100 nM on GST tagged PIP4KtypeIIB.

Regarding `CC(C)n1cnnc1-c1ccc(-c2cncc(-c3ccnc4[nH]c(C(=O)NCCCCCCCCNC(=O)COc5cccc6c5C(=O)N(C5CCC(=O)NC5=O)C6=O)cc34)c2)cc1` (stereo not shown) [Example 388, N-(8-(2-((2-(2,6-dioxopiperidin-3-yl)-1,3-dioxoisoindolin-4-yl)oxy)acetamido)octyl)-4-(5-(4-(4-isopropyl-4H-1,2,4-triazol-3-yl)phenyl)pyridin-3-yl)-1H-pyrrolo[2,3-b]pyridine-2-carboxamide], the IC50 (in experiment [1]; on GST tagged PIP4KtypeIIB) was 100 to 1000 nM in each case.

For the molecule `CN1CCn2c(cc3c(-c4cncc(-c5ccc(-c6nncn6CCC6CC6)cc5)c4)ccnc32)C1=O` [Example 369], the half-inhibitory concentration (IC50) in experiment [1] is 100 to 1000 nM; at GST tagged PIP4KtypeIIB it was 10 to 100 nM.
